From patent US20040214796A1, “Novel therapeutic application of enoxaparin” (AVENTIS PHARMA S.A., priority 2000, published 2004)
Marks after values point to notes of the source that are not given here.

How the values were obtained:
[1] = system: cerebral ischemia; test: Transient focal cerebral ischemia in rats (2 h clamp of left middle cerebral artery plus carotid ligation, then reperfusion), Studies 1-3; format: in vivo, rat (male Sprague Dawley); conditions: for reduction of the cortical lesion: vs control group; for CORTICAL LESION: mean ± S.E.M.
Procedure: Male Sprague Dawley rats (230-250 g Iffa Credo) are fed and watered ad libitum and kept in a light-dark cycle of 12 hours. Surgery was carried out under halothane (1.4% in a mixture of 70% N2O/30% O2). During anesthesia, normothermia is maintained by placing the rat under a thermostated cover. The left common carotid artery is isolated and a loose ligature is put in place. The left middle cerebral artery is exposed via a subtemporal craniotomy and a microclamp is placed in the proximal region of the artery, immediately followed by the ligation of the carotid artery. Two hours later, the animals are reanesthetized and the cerebral circulation is reestablished by removing the clamp from the middle cerebral artery and the ligature from the carotid artery. The rats are then placed in their cage in a thermostated room at 26-28° C. 48 hours after the surgery, a neurological examination is carried out for each rat by an examiner unaware of the treatment. The neurological scale used is described in Table 1. [table] After the neurological examination, the rats are humanely killed and their brains removed. 1.5 mm thick serial sections are prepared and stained with 2,3,5-triphenyltetrazolium chloride (TTC) at 2%. After 24 hours of post-fixing in a 10% formaldehyde solution, the lesion areas (cerebral infarct) are measured at the cortical and striatal levels; the volumes are calculated by integrating the lesioned surface areas. The values are expressed in mm^3 (mean ±S.E.M). Statistical analysis was carried out by a Mann-Whitney test or by a Kruskal-Wallis test for non-parametric variance analysis followed by a Dunn test for comparison between groups (*:p<0.05, **:p<0.01, ***:p<0.001 vs control group). In Study 1, enoxaparin is administered to 12 rats at 1.5 mg/kg iv, 2 hours and 24 hours after the onset of the ischemia. A control group of 10 rats receives only the vehicle (physiological solution of sodium chloride at 0.9%) following the same protocol. In Study 2, the therapeutic window of opportunity for enoxaparin is explored. The treatment starts 5 hours after the ischemia followed by a second administration at 24 hours. This study consists in an enoxaparin dose-effect on the cerebral lesions. The doses studied are 0.5:1 and 1.5 mg/kg iv (9-10 rats per group). A control group of 11 rats receives only the vehicle (physiological solution of sodium chloride at 0.9%). In Study 3, enoxaparin is administered to 10 rats at 1.5 mg/kg iv, 5 and 24 hours after the onset of the ischemia. The control group of 13 rats receives only the vehicle (physiological solution of sodium chloride at 0.9%).

[2] = system: cerebral ischemia; test: Permanent focal cerebral ischemia in rats (left middle cerebral artery permanently cauterized, no carotid occlusion), Study 4; format: in vivo, rat (male Sprague Dawley); conditions: Study 4 (permanent occlusion), 2 × 1.5 mg/kg iv

Enoxaparin
reduction of the cortical lesion ([1]; Study 1, 2 × 1.5 mg/kg iv, 2 h and 24 h): 30%
CORTICAL LESION ([1]; Study 1, 2 × 1.5 mg/kg iv, 2 h and 24 h after onset of ischemia, measured 48 h after surgery): 131 ± 13* mm^3
CORTICAL LESION ([1]; Study 2, 2 × 0.5 mg/kg iv, 5 h and 24 h after ischemia): 164 ± 15 mm^3
reduction of the cortical lesion ([1]; Study 2, 2×1 mg/kg iv, 5 h and 24 h): 30%
CORTICAL LESION ([1]; Study 2, 2 × 1 mg/kg iv, 5 h and 24 h after ischemia): 142 ± 24* mm^3
reduction of the cortical lesion ([1]; Study 2, 2×1.5 mg/kg iv, 5 h and 24 h): 36%
CORTICAL LESION ([1]; Study 2, 2 × 1.5 mg/kg iv, 5 h and 24 h after ischemia): 129 ± 17* mm^3
reduction of the cortical lesion ([1]; Study 3, 2 × 1.5 mg/kg iv, 5 h and 24 h): 34%
CORTICAL LESION ([1]; Study 3, 2 × 1.5 mg/kg iv, 5 h and 24 h after onset of ischemia): 129 ± 16** mm^3
bleeding ([1]; during Studies 1-4, 0.5-1.5 mg/kg iv, two administrations): No problem of bleeding was encountered
reduction of the cortical lesion ([2]; 5 h and 24 h, vs control group): 49%
CORTICAL LESION ([2]; 5 h and 24 h after onset of ischemia, mean ± S.E.M.): 71 ± 13* mm^3
